According to publication PMC2395260 (Genome Biology, 2008):
Read-outs that look alike come from different tables or passages of the source.

How the values were obtained:
[1] = tested on: HCV subgenomic replicon (genotype 1b) harboring the V36G mutant in Huh-7.5 cells; assay: Two-day HCV replicon assay, V36G mutant; assay type: cell-based, hepatitis C virus genotype 1b; conditions: for IC50: Hepatitis C virus, Huh7.5, 48 h, read-out: IC50 (HCV RNA level in replicon cells reduced by 50%); for viral suppression in V36G mutant replicon assay in comparison to wild-type replicon assay: V36G versus wild-type replicon, genotype 1b, 48 h
Procedure: Only the SCH 503034 inhibitor is lacking the cyclopropyl group (Figure 1). We used a wild-type HCV replicon assay (genotype 1b) and an assay harboring the V36G mutant for in vitro testing. Detailed information on experimental procedures is given in Materials and methods.
SCH 503034 was synthesized by Schering-Plough Corporation (Kenilworth, NJ, USA), dissolved in dimethyl sulfoxide as a 19 mM solution. Both compounds were stored at 4°C.
The plasmid pFKI389neo/NS3-3'/ET contains HCV subgenomic replicon sequences derived from HCV genotype 1b and an upstream T7 promoter for in vitro RNA synthesis. The point mutation was generated with the QuikChange II XL Site-Directed Mutagenesis Kit (Stratagene, La Jolla, CA, USA). The plasmid was linearized with ScaI and purified by phenol chloroform extraction. The linearized and purified plasmid was transcribed by using a T7 RNA polymerase (Promega, Madison, WI, USA) according to the manufacturer's instructions. All of the plasmids and RNAs were checked for purity and integrity by standard procedures.
Huh-7.5 cells were cultured in Dulbecco's modified Eagle's medium (DMEM; Invitrogen, Carlsbad, CA, USA) containing 10% fetal bovine serum (FBS; PAA Laboratories GmbH, Pasching, Germany) and 2 mM L-glutamine. The cells were transfected with an in vitro-transcribed subgenomic HCV replicon RNA. The wild-type sequence was identical to that of the pFKI389neo/NS3-3'/ET replicon. Stable cells containing the self-replicating HCV replicon were selected and maintained in the presence of 750 μg of G418 (Invitrogen) per ml and were used for HCV replicon assays.
HCV replicon cells were plated in a 6-well plate at a density of 2 × 10^5 cells per well in DMEM with 10% FBS. On the following day (24 h later), the culture medium was replaced with DMEM containing either no compound as a control or compounds serially diluted in the presence of 10% FBS and 750 μg/ml G418. After the cells were incubated with the compounds for 48 h, the intracellular RNA was extracted with an RNeasy kit (Qiagen, Valencia, CA, USA). The level of HCV RNA was determined by a real-time quantitative reverse transcription-PCR (RT-PCR) assay (Taqman) with a pair of HCV-specific primers (5'-[…]-3' and 5'-[…]-3'), an HCV-specific probe (5'-6FAM-[…] XT-PH-3), and an ABI Prism 7000 sequence detection system (Applied Biosystems, Foster City, CA, USA).

[2] = tested on: wild-type NS3-4A protease, HCV genotype 1a (HCV-H); conditions: HCV genotype 1a reference strain HCV-H; cited from earlier work
[3] = tested on: NS3-4A protease V36A/G/L/M mutants; conditions: cited from earlier work
[4] = tested on: NS3-4A protease T54S mutant; conditions: cited from earlier work
[5] = tested on: NS3-4A protease T54A mutant; conditions: cited from earlier work
[6] = tested on: NS3-4A protease R155G/I/K/L/M/S/T mutants; conditions: cited from earlier work
[7] = tested on: NS3-4A protease A156I/T/V mutants; conditions: range over A156I/T/V mutants; cited from earlier work
[8] = tested on: NS3-4A protease A156S mutant; conditions: cited from earlier work
[9] = tested on: HCV genotype 1; conditions: phase 1b clinical trial, after treatment duration of 24 hours; cited from earlier work

SMILES	IC50 [1]	viral suppression in V36G mutant replicon assay in comparison to wild-type replicon assay [1]	IC50 [2]	IC50 ([3]; V36A/G/L/M mutants, read-out: IC50 mean)	IC50 ([3]; range over V36A/G/L/M mutants, read-out: IC50 range)	IC50 [4]	IC50 [5]	IC50 ([6]; R155G/I/K/L/M/S/T mutants, read-out: IC50 mean)	IC50 ([6]; range over R155G/I/K/L/M/S/T mutants, read-out: IC50 range)	IC50 [7]	IC50 [8]	HCV RNA decline [9]
CC(C)(C)NC(=O)N[C@H](C(=O)N1C[C@H]2[C@@H]([C@H]1C(=O)NC(CC1CCC1)C(=O)C(N)=O)C2(C)C)C(C)(C)C (some centres unmarked) [SCH 503034, boceprevir]	< 5000 nM	nearly equally effective	–	–	–	–	–	–	–	–	–	–
CCC[C@H](NC(=O)[C@@H]1[C@H]2CCC[C@H]2CN1C(=O)[C@@H](NC(=O)[C@@H](NC(=O)c1cnccn1)C1CCCCC1)C(C)(C)C)C(=O)C(=O)NC1CC1 [VX-950, telaprevir]	~5000 nM	considerably delayed	70 nM	226 nM	110 to 444 nM	120 nM	749 nM	538 nM	275 to 1050 nM	12500 to 50000 nM	1400 nM	above 3 log
